Key:
interferon [1] = experiment: Interferon induction in mice; format: in vivo; settings: mouse serum
How it was run: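 Mouse serum collected at 1, 2 and 4 h (separate groups), pooled, stored at −70° C, then assayed as for human-cell interferon. Values in α/β reference units/mL against a mouse MU-1-IF standard; "<" marks levels below assay sensitivity.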

interferon-α [2] = experiment: Interferon-α induction in human cells, PBM; format: cell-based; settings: 24 hours
interferon-α [3] = experiment: Interferon-α induction in human cells, diluted whole blood; format: cell-based; settings: 24 hours
[4] = tested on: Herpes simplex virus Type II strain 333; experiment: Antiviral activity in guinea pigs infected with Herpes simplex virus Type II (lesion inhibition); format: in vivo; settings: oral once daily for four days
From the text: Female Hartley guinea pigs weighing 200 to 250 g are anesthetized with methoxyflurane (available under the […] from Pitman-Moore, Inc., Washington Crossing, N.J.), after which the vaginal area is swabbed with a dry cotton swab. The guinea pigs are then infected intravaginally with a cotton swab saturated with Herpes simplex virus Type II strain 333 (1×10^5 plaque forming units/mL). Guinea pigs are assigned to groups of 7 animals; one group for each treatment and one to serve as a control (vehicle treated). The compounds of the invention are formulated in water containing 5% Tween 80 (a polyoxyethylene sorbitan monooleate available from Aldrich Chemical Company, Inc., Milwaukee, Wis.). The, guinea pigs are treated orally once daily for four consecutive days starting 24 hours after infection. Antiviral activity is evaluated by comparing lesion development in compound-treated versus vehicle-treated guinea pigs. […] The maximum lesion score of each guinea pig is used to calculate the percentage lesion inhibition. The percentage lesion inhibition is calculated as follows: […]

interferon [5] = experiment: Interferon induction in guinea pigs (serum interferon titer); format: in vivo; settings: guinea pig serum 24 hours after initial oral dose, 2 mg/kg
From the text: Female Hartley guinea pigs weighing 200 to 250 g are anesthetized with methoxyflurane (available under the […] from Pitman-Moore, Inc., Washington Crossing, N.J.), after which the vaginal area is swabbed with a dry cotton swab. The guinea pigs are then infected intravaginally with a cotton swab saturated with Herpes simplex virus Type II strain 333 (1×10^5 plaque forming units/mL). Guinea pigs are assigned to groups of 7 animals; one group for each treatment and one to serve as a control (vehicle treated). The compounds of the invention are formulated in water containing 5% Tween 80 (a polyoxyethylene sorbitan monooleate available from Aldrich Chemical Company, Inc., Milwaukee, Wis.). The, guinea pigs are treated orally once daily for four consecutive days starting 24 hours after infection. Twenty-four hours after the initial dose of test compound has been administered, blood is obtained from 3 guinea pigs from each treatment group by cardiac puncture of methoxyflurane anesthetized animals. Blood is pooled and allowed to clot at room temperature. After low speed centrifugation, serum is collected and stored at -70° C. until analysis. Interferon levels in the guinea pig serum are determined in a standard microtiter assay using transformed guinea pig cells (ATCC CRL 1405). The interferon assay is done in 96 well microtiter plates. Confluent monolayers of transformed guinea pig cells are treated with dilutions of guinea pig serum made with medium 199 (GIBCO, Grand Island, N.Y.). The cell and serum dilutions are incubated at 37° C. overnight. The following day, the medium and serum are removed and about 10 plaque forming units of Mengovirus are added to each well. Controls consist of wells that receive no guinea pig serum (virus positive control) and wells that receive no virus (virus negative control). Cells and virus are incubated for 2 to 3 days at 37° C. before quantifying for viral cytopathic effect. The viral cytopathic effect is quantified by staining with 0.05% crystal violet followed by spectrophotometric absorbance measurements. The titer of interferon in serum is expressed as units/mL and is the reciprocal of the highest dilution that protects cells from virus.

Row | Compound | Interferon induction in mice (interferon [1]; oral 1 mg/kg, 1 hr) [Reference Units/mL] | Interferon induction in mice (interferon [1]; oral 1 mg/kg, 2 hr) [Reference Units/mL] | Interferon induction in mice (interferon [1]; oral 1 mg/kg, 4 hr) | Interferon induction in mice (interferon [1]; oral 3 mg/kg, 1 hr) | Interferon induction in mice (interferon [1]; oral 3 mg/kg, 2 hr) | Interferon induction in mice (interferon [1]; oral 3 mg/kg, 4 hr) [Reference Units/mL] | Interferon induction in mice (interferon [1]; oral 10 mg/kg, 1 hr) [Reference Units/mL] | Interferon induction in mice (interferon [1]; oral 10 mg/kg, 2 hr) [Reference Units/mL] | Interferon induction in mice (interferon [1]; oral 10 mg/kg, 4 hr) | Interferon-α induction (interferon-α [2]; dose concentration 0.01 μg/mL) | Interferon-α induction (interferon-α [2]; dose concentration 0.05 μg/mL) | Interferon-α induction (interferon-α [2]; dose concentration 0.10 μg/mL) | Interferon-α induction (interferon-α [2]; dose concentration 0.50 μg/mL) | Interferon-α induction (interferon-α [2]; dose concentration 1.0 μg/mL) | Interferon-α induction (interferon-α [2]; dose concentration 5.0 μg/mL) | Interferon-α induction (interferon-α [3]; dose concentration 0.10 μg/mL) | Interferon-α induction (interferon-α [3]; dose concentration 0.50 μg/mL) | Interferon-α induction (interferon-α [3]; dose concentration 1.0 μg/mL) | Interferon-α induction (interferon-α [3]; dose concentration 5.0 μg/mL) | Interferon induction in mice (interferon [1]; oral 30 mg/kg, 1 hr) [Reference Units/mL] | other results
1 | CC(C)Cn1c(CCl)nc2c(N)nc3ccccc3c21.Cl [Example 10, 2-Chloromethyl-1-(2-methylpropyl)-1H-imidazo[4,5-c]quinolin-4-amine Hydrochloride] | <120 | <120 | <120 Reference Units/mL | <120 Reference Units/mL | <120 Reference Units/mL | <120 | <120 | <120 | 600 Reference Units/mL | <1.3 α Reference Units/mL | 28 α Reference Units/mL | 140 α Reference Units/mL | 750 α Reference Units/mL | 750 α Reference Units/mL | 190 α Reference Units/mL | <1.5 α Reference Units/mL | 96 α Reference Units/mL | 120 α Reference Units/mL | 120 α Reference Units/mL | – | Interferon induction in mice (interferon [1]; oral 0.3 mg/kg, 1 hr): <120 Reference Units/mL; Interferon induction in mice (interferon [1]; oral 0.3 mg/kg, 2 hr): <120 Reference Units/mL; Interferon induction in mice (interferon [1]; oral 0.3 mg/kg, 4 hr): <120 Reference Units/mL; % Lesion Inhibition ([4]; dose 0.5 mg/kg): 29%
2 | CC(C)Cn1c(C(C)O)nc2c(N)nc3ccccc3c21 (stereo not drawn) [Example 20, 4-Amino-α-methyl-1-(2-methylpropyl)-1H-imidazo[4,5c]-quinoline-2-methanol] | 140 | 560 | <47 Reference Units/mL | 970 Reference Units/mL | 1200 Reference Units/mL | 140 | 2200 | 5000 | 100 Reference Units/mL | <1.8 α Reference Units/mL | 190 α Reference Units/mL | 190 α Reference Units/mL | 1000 α Reference Units/mL | 1000 α Reference Units/mL | 1000 α Reference Units/mL | 85 α Reference Units/mL | 440 α Reference Units/mL | 250 α Reference Units/mL | 190 α Reference Units/mL | 2200 | Interferon induction in mice (interferon [1]; oral 30 mg/kg, 2 hr): 8700 Reference Units/mL; Interferon induction in mice (interferon [1]; oral 30 mg/kg, 4 hr): 320 Reference Units/mL; % Lesion Inhibition ([4]; dose 2 mg/kg): 100%
3 | CC(C)Cn1c(CO)nc2c(N)nc3ccccc3c21 [Example 9, 4-Amino-1-(2-methylpropyl)-1H-imidazo-[4,5-c]quinoline-2-methanol] | <47 | <47 | <47 Reference Units/mL | ≦47 Reference Units/mL | ≦47 Reference Units/mL | <47 | 330 | 740 | ≦47 Reference Units/mL | <1.8 α Reference Units/mL | 16 α Reference Units/mL | 140 α Reference Units/mL | 750 α Reference Units/mL | 750 α Reference Units/mL | 750 α Reference Units/mL | – | – | – | – | 2900 | Interferon induction in mice (interferon [1]; oral 30 mg/kg, 2 hr): 5000 Reference Units/mL; Interferon induction in mice (interferon [1]; oral 30 mg/kg, 4 hr): 4 Reference Units/mL; % Lesion Inhibition ([4]; dose 2 mg/kg): 37%; Reference Units/mL (interferon in serum) (interferon [5]): 266 Units/mL
4 | CC(C)Cn1c(CN2CCCC2)nc2c(N)nc3ccccc3c21 [Example 13, 1-(2-Methylpropyl)-2-pyrrolidinomethyl-1H-imidazo[4,5-c]quinolin-4-amine] | 130 | 530 | ≦100 Reference Units/mL | 230 Reference Units/mL | 400 Reference Units/mL | 130 | 700 | 1200 | 400 Reference Units/mL | – | – | <1.9 α Reference Units/mL | 10 α Reference Units/mL | 10 α Reference Units/mL | 4 α Reference Units/mL | – | – | – | – | – | Interferon induction in mice (interferon [1]; oral 0.3 mg/kg, 1 hr): <59 Reference Units/mL; Interferon induction in mice (interferon [1]; oral 0.3 mg/kg, 2 hr): ≦130 Reference Units/mL; Interferon induction in mice (interferon [1]; oral 0.3 mg/kg, 4 hr): <59 Reference Units/mL; % Lesion Inhibition ([4]; dose 2 mg/kg): 67%
5 | CC(C)Cn1c(C(C)(C)O)nc2c(N)nc3ccccc3c21 [Example 23, 4-Amino-α,α-dimethyl-1-(2-methylpropyl)-1H-imidazo[4,5-c]quinoline-2-methanol] | – | – | – | – | – | – | – | – | – | – | – | – | – | – | – | <1.8 α Reference Units/mL | <1.8 α Reference Units/mL | 84 α Reference Units/mL | 250 α Reference Units/mL | 1200 | Interferon induction in mice (interferon [1]; oral 30 mg/kg, 2 hr): 1200 Reference Units/mL; Interferon induction in mice (interferon [1]; oral 30 mg/kg, 4 hr): 140 Reference Units/mL

From patent US6465654B2, “Process for preparing 1-substituted, 2-substituted 1H-imidazo[4, 5-c]quinoline-4-amines” (3M Innovative Properties Company, priority 1991, dated 2002)
